From patent US9486506B2 (Novo Nordisk A/S, priority 2011, dated 2016)
Numbered stars: 1 amine (or outer) side, 2 acyl side, 3 side chain; on linkers, the order of the positions; unused ones are H or OH. Side chains are listed from the residue outwards. Peptide text beside a SMILES is read from it. * marks the point of attachment. C18 diacid = O=C(O)CCCCCCCCCCCCCCCCC(=O)*; γGlu = O=C(O)[C@H](CCC(=O)[*:2])N[*:1]; AEEA = NCCOCCOCC(=O)O

Columns and labels:
[1] = Assay (X) Chemical stability assessment by RP-UPLC; assay type: physicochemical; settings: pH 8.15, 14 days at 37° C. vs 5° C., 333 μM
glucagon receptor = molecular target: T1, glucagon receptor (Homo sapiens, UniProt P47871); experiment: Assay (I) Glucagon activity (cAMP biosensor, FLIPR); assay type: cell-based
T1 construct: expressed in transfected cells

[2] = Assay (XI) Pharmacokinetic study in minipigs; assay type: in vivo, Göttingen minipigs; settings: i.v. administration, terminal half-life; for half-life: both sexes, Göttingen, minipig, plasma, iv, read-out: iv PK minipig [T½] (converted)
Description: Buffer: • 50 mM Dinatriumphosphatdihydrat • 184 mM Propylenglycol • 58 mM Phenol • pH adjusted to 8.15 with H3PO4. In cases where pH was adjusted to 8.15 after re-suspension of analogues, 0.2 M NaOH was used. Assay (XI) Pharmacokinetic Study in Minipigs
This is done in a pharmacokinetic (PK) study, whereamong other parameters the terminal half-life and the clearance of the derivative in question is determined. Increasing the terminal half-life and decreasing the clearance means that the compound of study is eliminated slower from the body.
Male or female Göttingen minipigs were obtained from Ellegaard Göttingen Minipigs (Dalmose, Denmark) approximately 7-14 months of age and weighing from approximately 16-35 kg were used in the studies. The minipigs were housed either individually (pigs with permanent catheters) or in a group and fed restrictedly once or twice daily with SDS minipig diet (Special Diets Services, Essex, UK). In some studies two permanent central venous catheters were implanted in vena cava caudalis or cranialis in each animal after at least 2 weeks of acclimatisation. […] On each dosing occasion these pigs were instrumented with a venflon in one ear vein through which the derivatives were dosed. Blood sampling was done by venipuncture in v. jugularis or v. cava cranialis
The animals were either unfasted or fasted for approximately 18 h before dosing and from 0 to 4 h after dosing, but had ad libitum access to water during the whole period.
Intravenous injections (the volume corresponding to usually 2-3 nmol/kg, for example 0.1 ml/kg) of the compounds were given through one catheter or through the venflon, and blood was sampled at predefined time points for up till 13 days post dosing (preferably through the other catheter or by venipuncture). Blood samples (for example 0.8 ml) were collected in tubes with EDTA buffer (8 mM) (sometimes aprotinin 500 KIU/ml blood was added) and then centrifuged at 4° C. and 1942 G for 10 minutes. […] Based on these measurements, time-plasma concentration profiles for the compound of study are plotted and a so-called non-compartmental pharmacokinetic analysis of the data is performed in WinNonlin v. 5.0 or Phoenix v. 6.2 (Pharsight Inc., Mountain View, Calif., USA) or other relevant software for PK analysis. For most compounds, the terminal part of the plasma-concentration profiles will be linear when drawn in a semi-logarithmic plot, reflecting that after the initial distribution, drug is removed from the body at a constant fractional rate. The rate (lambda Z or is equal to minus the slope of the terminal part of the plot. From this rate, also the terminal half-life may be calculated, as t½=ln(2)/λz (see, e.g., Johan Gabrielsson and Daniel Weiner: Pharmacokinetics and Pharmacodynamic Data Analysis. Concepts & Applications, 3rd Ed., Swedish Pharmaceutical Press, Stockholm (2000)).
Clearance is defined as the dose (D) divided by area under the curve (AUC) on the plasmaconcentration versus time profile (Rowland, M and Tozer T N: Clinical Pharmacokinetics: Concepts and Applications, 3rd edition, 1995 Williams Wilkins)

T1 sequence (P47871 26-477): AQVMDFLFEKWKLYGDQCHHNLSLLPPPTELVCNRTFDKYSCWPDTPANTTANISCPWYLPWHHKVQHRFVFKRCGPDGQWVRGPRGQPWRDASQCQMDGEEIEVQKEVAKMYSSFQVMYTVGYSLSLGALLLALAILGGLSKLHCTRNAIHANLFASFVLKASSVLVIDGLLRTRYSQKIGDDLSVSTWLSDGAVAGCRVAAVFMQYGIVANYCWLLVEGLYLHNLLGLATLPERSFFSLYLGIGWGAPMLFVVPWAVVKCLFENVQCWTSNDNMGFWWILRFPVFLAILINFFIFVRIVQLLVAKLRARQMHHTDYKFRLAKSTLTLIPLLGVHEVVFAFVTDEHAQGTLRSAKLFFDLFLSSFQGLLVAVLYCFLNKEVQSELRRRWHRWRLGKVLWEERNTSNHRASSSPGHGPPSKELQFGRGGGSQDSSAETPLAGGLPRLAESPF

Compound | Chemical stability [Purity loss/14 days 37 C.] [1] | EC50 (glucagon receptor) | half-life [2] | iv PK minipig [T½] [2]
CC(C)C[C@H](NC(=O)[C@H](CC(=O)O)NC(=O)[C@H](CC(C)C)NC(=O)[C@H](Cc1ccc(O)cc1)NC(=O)[C@H](CCCNC(=N)N)NC(=O)[C@H](CO)NC(=O)[C@H](Cc1ccc(O)cc1)NC(=O)[C@H](CC(=O)O)NC(=O)[C@H](CO)NC(=O)[C@@H](NC(=O)[C@H](Cc1ccccc1)NC(=O)[C@@H](NC(=O)CNC(=O)[C@H](CCC(N)=O)NC(=O)[C@H](CO)NC(=O)[C@@H](N)Cc1c[nH]cn1)[C@@H](C)O)[C@@H](C)O)C(=O)N[C@@H](CCCNC(=N)N)C(=O)N[C@@H](CCCNC(=N)N)C(=O)N[C@@H](C)C(=O)N[C@@H](CCC(N)=O)C(=O)N[C@@H](CC(=O)O)C(=O)N[C@@H](Cc1ccccc1)C(=O)N[C@H](C(=O)N[C@@H](CCCCNC(=O)CC[C@H](NC(=O)CC[C@H](NC(=O)COCCOCCNC(=O)COCCOCCNC(=O)CC[C@H](NC(=O)CCCCCCCCCCCCCCCCC(=O)O)C(=O)O)C(=O)O)C(=O)O)C(=O)N[C@@H](Cc1c[nH]c2ccccc12)C(=O)N[C@@H](CC(C)C)C(=O)N[C@@H](CC(C)C)C(=O)N[C@@H](CO)C(=O)N[C@H](C(=O)O)[C@@H](C)O)C(C)C [Example 15, N^ε24-[(4S)-4-carboxy-4-[[(4S)-4-carboxy-4-[[2-[2-[2-[[2-[2-[2-[[(4S)-4-carboxy-4-(17-carboxyheptadecanoylamino)butanoyl]amino]ethoxy]ethoxy]acetyl]amino]ethoxy]ethoxy]acetyl]amino]butanoyl]amino]butanoyl]-[Arg^12,Leu^16,Lys^24,Leu^27,Ser^28]-Glucagon] (H-HSQGTFTSDYSRYLDLRRAQDFVK([γGlu-γGlu-AEEA-AEEA-γGlu-C18 diacid])WLLST-OH) | 5.3% | 0.255 nM | 77.4 h | –
CC(C)C[C@H](NC(=O)[C@H](Cc1c[nH]c2ccccc12)NC(=O)[C@H](CCCCNC(=O)CC[C@H](NC(=O)CC[C@H](NC(=O)COCCOCCNC(=O)COCCOCCNC(=O)CC[C@H](NC(=O)CCCCCCCCCCCCCCCCC(=O)O)C(=O)O)C(=O)O)C(=O)O)NC(=O)[C@@H](NC(=O)[C@H](Cc1ccccc1)NC(=O)[C@H](CCC(=O)O)NC(=O)[C@H](CCC(N)=O)NC(=O)[C@H](C)NC(=O)[C@H](CCCNC(=N)N)NC(=O)[C@H](CCCNC(=N)N)NC(=O)[C@@H](NC(=O)[C@H](CC(=O)O)NC(=O)[C@H](CC(C)C)NC(=O)[C@H](Cc1ccc(O)cc1)NC(=O)[C@H](CCCCN)NC(=O)[C@H](CO)NC(=O)[C@@H](NC(=O)[C@H](CC(=O)O)NC(=O)[C@H](CO)NC(=O)[C@@H](NC(=O)[C@H](Cc1ccccc1)NC(=O)[C@@H](NC(=O)CNC(=O)[C@H](CCC(N)=O)NC(=O)[C@H](CO)NC(=O)[C@@H](N)Cc1c[nH]cn1)[C@@H](C)O)[C@@H](C)O)C(C)C)[C@@H](C)O)C(C)C)C(=O)N[C@@H](CC(C)C)C(=O)N[C@@H](CO)C(=O)N[C@H](C(=O)O)[C@@H](C)O [Example 38, N^ε24-[(4S)-4-carboxy-4-[[(4S)-4-carboxy-4-[[2-[2-[2-[[2-[2-[2-[[(4S)-4-carboxy-4-(17-carboxyheptadecanoylamino)butanoyl]amino]ethoxy]ethoxy]acetyl]amino]ethoxy]ethoxy]acetyl]amino]butanoyl]amino]butanoyl]-[Val10,Thr16,Glu21,Lys24,Leu27,Ser28]-Glucagon] (H-HSQGTFTSDVSKYLDTRRAQEFVK([γGlu-γGlu-AEEA-AEEA-γGlu-C18 diacid])WLLST-OH) | 4.2% | – | – | 83.0 h
CC(C)C[C@H](NC(=O)[C@H](CC(=O)O)NC(=O)[C@H](CC(C)C)NC(=O)[C@H](Cc1ccc(O)cc1)NC(=O)[C@H](CCCCN)NC(=O)[C@H](CO)NC(=O)[C@@H](NC(=O)[C@H](CC(=O)O)NC(=O)[C@H](CO)NC(=O)[C@@H](NC(=O)[C@H](Cc1ccccc1)NC(=O)[C@@H](NC(=O)CNC(=O)[C@H](CCC(N)=O)NC(=O)[C@H](CO)NC(=O)[C@@H](N)Cc1c[nH]cn1)[C@@H](C)O)[C@@H](C)O)C(C)C)C(=O)N[C@@H](CCCNC(=N)N)C(=O)N[C@@H](CCCNC(=N)N)C(=O)N[C@@H](C)C(=O)N[C@@H](CCC(N)=O)C(=O)N[C@@H](CCC(=O)O)C(=O)N[C@@H](Cc1ccccc1)C(=O)N[C@H](C(=O)N[C@@H](CCCCNC(=O)CC[C@H](NC(=O)COCCOCCNC(=O)COCCOCCNC(=O)CC[C@H](NC(=O)CC[C@H](NC(=O)CCCCCCCCCCCCCCCCC(=O)O)C(=O)O)C(=O)O)C(=O)O)C(=O)N[C@@H](Cc1c[nH]c2ccccc12)C(=O)N[C@@H](CC(C)C)C(=O)N[C@@H](CC(C)C)C(=O)N[C@@H](CO)C(=O)N[C@H](C(=O)O)[C@@H](C)O)C(C)C [Example 63, N^ε24-[(4S)-4-carboxy-4-[[2-[2-[2-[[2-[2-[2-[[(4S)-4-carboxy-4-[[(4S)-4-carboxy-4-(17-carboxyheptadecanoylamino)butanoyl]amino]butanoyl]amino]ethoxy]ethoxy]acetyl]amino]ethoxy]ethoxy]acetyl]amino]butanoyl]-[Val10,Leu16,Glu21,Lys24,Leu27,Ser28]-Glucagon] (H-HSQGTFTSDVSKYLDLRRAQEFVK([γGlu-AEEA-AEEA-γGlu-γGlu-C18 diacid])WLLST-OH) | 4.1% | 0.088 nM | 63.7 h | –
CC(C)C[C@H](NC(=O)[C@H](CC(=O)O)NC(=O)[C@H](CC(C)C)NC(=O)[C@H](Cc1ccc(O)cc1)NC(=O)[C@H](CCCCN)NC(=O)[C@H](CO)NC(=O)[C@H](Cc1ccc(O)cc1)NC(=O)[C@H](CC(=O)O)NC(=O)[C@H](CO)NC(=O)[C@@H](NC(=O)[C@H](Cc1ccccc1)NC(=O)[C@@H](NC(=O)CNC(=O)[C@H](CCC(N)=O)NC(=O)[C@H](CO)NC(=O)[C@@H](N)Cc1c[nH]cn1)[C@@H](C)O)[C@@H](C)O)C(=O)N[C@@H](CCCNC(=N)N)C(=O)N[C@@H](CCCNC(=N)N)C(=O)N[C@@H](C)C(=O)N[C@@H](CCC(N)=O)C(=O)N[C@@H](CC(=O)O)C(=O)N[C@@H](Cc1ccccc1)C(=O)N[C@H](C(=O)N[C@@H](CCCCNC(=O)CC[C@H](NC(=O)CC[C@H](NC(=O)CC[C@H](NC(=O)CC[C@H](NC(=O)CCCCCCCCCCCCCCCCC(=O)O)C(=O)O)C(=O)O)C(=O)O)C(=O)O)C(=O)N[C@@H](Cc1c[nH]c2ccccc12)C(=O)N[C@@H](CC(C)C)C(=O)N[C@@H](CC(C)C)C(=O)N[C@@H](CO)C(=O)N[C@H](C(=O)O)[C@@H](C)O)C(C)C [Example 80, N^ε24-[(4S)-4-carboxy-4-[[(4S)-4-carboxy-4-[[(4S)-4-carboxy-4-[[(4S)-4-carboxy-4-(17-carboxyheptadecanoylamino)butanoyl]amino]butanoyl]amino]butanoyl]amino]butanoyl]-[Leu16,Lys24,Leu27,Ser28]-Glucagon] | 4.5% | 0.126 nM | 60.9 h | –
